Measurements: paper PMC12172326 (Journal of Biomedical Science, 2025)
Read-outs that look alike come from different tables or passages of the source.

What was measured:
[1] = ex vivo stability in mouse plasma; assay type: in vitro ADME; conditions: 100 μg/ml, room temperature, 0-180 min
Procedure: An ex vivo evaluation of drug stability was conducted in mouse and human plasma samples (WuXi AppTec, Shanghai, China). […] Samples were, thereafter, incubated at room temperature for 0, 15, 30, 60, 120, and 180 min before immediate drug extraction. […] Extraction was performed by adding ethyl acetate containing the internal standard (donepezil—known to undergo first-pass hepatic metabolism) to the spiked sample (100 μL), vortexed for 1 min, and centrifuged at 13,000 rpm, 4 °C for 10 min. The supernatant was used for LC–MS/MS analysis.
LC–MS/MS analysis was performed with a Vanquish Flex UHPLC (Thermo Scientific) and a Orbitrap Exploris 240 mass spectrometer (Thermo Scientific). Samples were separated on a C18 UHPLC column (100 mm × 2.1 mm, 3 μm; Thermo Scientific). The mobile phase A for LC separation was 0.1% formic acid and the mobile phase B was 0.1% formic acid in methanol. The chromatography gradient was designed for a linear increase from 5% B in 1 min, 5% B to 95% B in 8 min, 95% B in 3 min, and 5% B in 3 min. The flow rate was maintained at 0.3 mL/min. Mass spectra were acquired using the data-dependent Top 4 MS2 (ddMS2) method with a mass scan (100–1000 m/z) and 120,000 MS resolution.

[2] = cited from earlier work
[3] = system: IMG cells; assay: LPS-induced inflammation in IMG microglial cells (viability, nitrite, TNF-α); assay type: cell-based, mouse; conditions: 24 h
Procedure: (§1) IMG cell culture: Mouse immortalized microglial ‘IMG’ cells (Sigma-Aldrich; St. Louis, MO, USA; Cat # SCC-134, RRID:CVCL HC49) were cultured in High Glucose DMEM (Sigma Cat. No. D6546) with 10% heat-inactivated fetal bovine serum (Gibco™ Cat # 10082147), 1 × L-Glutamine (Sigma Cat # TMS-002-C) and 100 U/mL penicillin/streptomycin (Gibco™ Cat # 15140148). IMG cell subculturing was performed according to the product datasheet. In brief, cells were detached from culture plates with Accutase® (Sigma, Cat # A6964), collected, and centrifuged, with the cell pellet subsequently resuspended in media. The cells were then plated for experiments at specified densities and used for a maximum of 10 passages.
(§2) For cytokine/nitrite assessment studies, cells were grown in 24-well (40 K cells/well) tissue culture-treated plates in 500 μl of media. […] This LPS concentration induced a submaximal inflammatory response in IMG pilot studies. Following a 24 h incubation, conditioned media was collected and replaced with 500 μl fresh media to allow assessment of cell viability, TNF-α (ELISA MAX™ Deluxe Set Mouse TNF-α, BioLegend, CA, USA) and nitrite levels (Griess Reagent System, Promega, Madison, WI, USA), according to manufacturer’s instructions.

[4] = as above; assay type: cell-based, mouse; conditions: mouse, IMG immortalized microglial cells, IMG, 0.6 to 60 μM, LPS 10 ng/mL, MTS, read-out: cellular viability
Procedure: as §1, §2

[5] = mouse pharmacokinetics, plasma and brain, I.P.; assay type: in vivo; conditions: for Kp / Cmax / Tmax / AUC(0-inf) / AUC(0-t): male, C57/BL6 J, ip; for Kp: brain/plasma, from AUCinfinity values
Procedure: Mice were euthanized from 30 min to 18 h after dosing. Blood samples were collected into heparinized tubes, centrifuged (10,000g × 2 min at 4 °C), and plasma collected and immediately stored at − 80 °C. The brain was rapidly excised on wet ice; a sample of cerebral hemisphere was then removed and immediately frozen to − 80 °C.

[6] = aqueous solubility; assay type: physicochemical
Procedure: This coarse drug suspension was transferred into Eppendorf microtubes containing approximately 0.4 g of 0.1–0.2 mm yttrium-stabilized zirconia-silica beads (Silibeads® Typ ZY Sigmund Lindner, Germany). The drug was vortexed twice, at 3000 rpm for 45 min, using a beads-milling cell disruptor (Disruptor Genie®, Scientific Industries, USA). The resulting nanosuspension was collected from each microtube and sieved through a 40 µm filter (Cell Strainer, Falcon # 35234) to remove the zirconia-silica beads. […] The stock drug concentration was 10.83 mg/ml (37.4 mM). The drug vehicle was essentially the same ratio of Tween 80 and water, processed in the identical manner as the drug preparation.

[7] = system: LPS-induced cytokines (TNF-α, IL-6, IL-1β, KC/GRO, IL-10); assay: systemic LPS challenge in mice, plasma and cerebral cortex cytokines; assay type: in vivo, mouse
Procedure: 8-week-old male C57/BL6 J mice (25–30 g; n = 28) were randomly assigned to five experimental groups. […] Rolipram, a discontinued PDE4 inhibitor, with known anti-inflammatory activity was used as a positive control. One hour later, animals were administered either LPS (3 mg/kg, serotype 0111:B4, Sigma Aldrich, in normal saline, 0.1 mL/10 g) or an alike volume of saline (without LPS) via the I.P. route. The LPS dose was selected from prior pilot studies to provide a substantial but sub-maximal rise in plasma pro-inflammatory cytokine levels, in line with our prior research. […] Four hours after LPS administration, animals were euthanized, and blood and brain tissue were collected and placed on wet ice. Plasma was quickly separated from blood by centrifugation (10,000g, 5 min, 4 °C), and together with a brain sample (cerebral cortex), were stored at − 80 °C. At a later time, cerebral cortex samples were sonicated in a TRIS-based lysis buffer (Mesoscale Discovery) with 3 × protease/phosphatase inhibitors (Halt™ Protease and Phosphatase Inhibitor Cocktail, Thermo Fisher Scientific, Waltham, MA, USA). Samples were then centrifuged (10,000g, 10 min, 4 °C) and protein concentrations were quantified by bicinchoninic acid assay (BCA, Thermo Fisher Scientific). Mouse plasma and cerebral cortex samples were analyzed by multi-pro-inflammatory cytokine ELISA (V-PLEX Pro-inflammatory Panel 1 Mouse Kit, Mesoscale Discovery) following the manufacturer’s protocol.

[8] = 26.5 and 53 mg/kg I.P. 1 h before LPS 3 mg/kg, 4 h, p < 0.05 to < 0.0001
[9] = cerebral cortex, 26.5 and 53 mg/kg I.P., LPS 3 mg/kg, 4 h

For `Nc1cccc2c1C(=S)N(C1CCC(=O)NC1=O)C2=O` (stereo not drawn) [3-MP, 3-monothiopomalidomide], the “ex vivo stability in mouse plasma” value [1] is listed as “stable”, the oral bioavailability [2] is listed as 38.5% and the IMG cell viability ([3]; 100 μM, without LPS, vs vehicle control, MTS) is listed as “reduced”. For the same compound, the “concentration significantly reducing LPS-induced TNF-α” value ([3]; IMG, LPS 10 ng/mL, p < 0.001) was ≥ 10 µM, the “concentration significantly reducing LPS-induced nitrite” value ([3]; IMG, LPS 10 ng/mL, p < 0.05) was ≥ 30 µM and the viability at 24 h [4] was > 90%. The AUCInf ([5]; brain, 2.65 mg/kg I.P.) was 676.54 ng·h/g, the AUCLast ([5]; brain, 2.65 mg/kg I.P.) was 550.20 ng·h/g and the AUCInf ([5]; brain, 26.5 mg/kg I.P.) was 9052.48 ng·h/g. The AUCLast ([5]; brain, 26.5 mg/kg I.P.) was 8968.50 ng·h/g, the Kp ([5]; 2.65 mg/kg, 2.65 mg/kg I.P., read-out: Brain/plasma ratio) was 0.47 and the Kp ([5]; 2.65 mg/kg, across the two doses 26.47 and 2.65 mg/kg I.P., read-out: brain/plasma drug concentration ratio) was 0.44 to 0.47. The Kp ([5]; 26.5 mg/kg, 26.5 mg/kg I.P., read-out: Brain/plasma ratio) was 0.44, the Cmax ([5]; brain, 2.65 mg/kg I.P.) was 454 ng/g and the Tmax ([5]; brain, 2.65 mg/kg I.P.) was 30 min. The Cmax ([5]; brain, 26.5 mg/kg I.P.) was 4230 ng/g, the Tmax ([5]; brain, 26.5 mg/kg I.P.) was 60 min and the AUC(0-inf) ([5]; plasma, 2.65 mg/kg I.P.) was 1440 ng·h/mL. The AUC(0-t) ([5]; plasma, 2.65 mg/kg I.P.) was 1410 ng·h/mL, the Cmax ([5]; plasma, 2.65 mg/kg I.P.) was 978 ng/mL and the Tmax ([5]; plasma, 2.65 mg/kg I.P.) was 30 min. The AUC(0-inf) ([5]; plasma, 26.5 mg/kg I.P.) was 20800 ng·h/mL, the AUC(0-t) ([5]; plasma, 26.5 mg/kg I.P.) was 20700 ng·h/mL and the Cmax ([5]; plasma, 26.5 mg/kg I.P.) was 9580 ng/mL. For the same compound, the Tmax ([5]; plasma, 26.5 mg/kg I.P.) was 60 min, the aqueous solubility [6] was “poorly aqueous soluble” and the “LPS-mediated elevation in plasma IL-6” value [7, 8] was “lowered”. For the same compound, the “LPS-mediated elevation in plasma TNF-α” value [7, 8] was “lowered”, the “LPS-induced brain IL-1β” value [7, 9] was “dose-dependent reduction” and the “LPS-induced brain IL-6” value [7, 9] was “dose-dependent reduction”. For the same compound, the “LPS-induced brain KC/GRO” value [7, 9] was “dose-dependent reduction”, the “LPS-induced brain TNF-α” value [7, 9] was “dose-dependent reduction” and the “levels of the anti-inflammatory cytokine IL-10” value ([7]; plasma and brain, 26.5 and 53 mg/kg I.P., compared to LPS treatment) was “unaffected”.
